Data reported in patent US20170326199A1, “USE OF CASPASE-2 INHIBITORS TO TREAT AND PREVENT THE METABOLIC SYNDROME” (Duke University, priority 2015, published 2017).

Key:
[1] = system: other classes of proteases or other enzymes or receptors other than caspases; conditions: selectivity; cited from earlier work
[2] = system: human caspases (including caspase-2); conditions: broad-spectrum (pan-caspase) inhibitor; cited from earlier work
[3] = system: 3T3-L1 cells differentiated in adipocytes; assay: Palmitate-induced lipoapoptosis (caspase 3/7 activity, ApoTox-Glo Triplex Assay) in 3T3-L1 adipocytes; format: cell-based; conditions: palmitate 1 mM, 48 hours, inhibitor 20 uM, FIG. 4G
Method: FIG. 4G. […] Left panel: apoptosis (caspase 3/7 activity) in adipocytes treated with Palmitate 1 mM, 48 hour±caspase-2 inhibitor, VDVAD-FMK 20 uM.
3T3-L1 cells were differentiated in adipocytes as previously described (Zebisch et al., 2012), and differentiation confirmed with Oil red staining. Adipocytes were treated with palmitate 1 mM with or without caspase-2 inhibitor Z-VDVAD-FMK (R&D Systems), 20 uM, for 48 hours. Apoptosis was measured using ApoTox-Glo Triplex Assay (Promega).

caspase-2 = target: T1, caspase-2 (Homo sapiens, UniProt P42575); conditions: cell-permeable peptide; cited from earlier work
T1 sequence (P42575 1-452): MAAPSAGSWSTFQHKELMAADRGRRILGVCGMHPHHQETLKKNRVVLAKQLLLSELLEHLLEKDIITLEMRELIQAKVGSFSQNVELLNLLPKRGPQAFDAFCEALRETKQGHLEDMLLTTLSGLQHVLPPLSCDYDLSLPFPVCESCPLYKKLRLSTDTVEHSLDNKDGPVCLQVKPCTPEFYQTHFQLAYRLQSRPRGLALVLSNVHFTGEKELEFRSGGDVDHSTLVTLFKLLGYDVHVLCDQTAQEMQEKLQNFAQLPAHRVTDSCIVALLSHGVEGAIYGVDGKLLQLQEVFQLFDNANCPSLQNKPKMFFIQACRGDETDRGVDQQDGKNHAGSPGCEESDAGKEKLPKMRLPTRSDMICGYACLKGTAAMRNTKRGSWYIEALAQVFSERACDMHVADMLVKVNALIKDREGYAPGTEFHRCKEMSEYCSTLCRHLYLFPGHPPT

For `C[C@H](NC(=O)C(=O)Nc1ccccc1C(C)(C)C)C(=O)N[C@@H](CC(=O)O)C(=O)COc1c(F)c(F)cc(F)c1F` [IDN-6556], the “inhibition of non-caspase proteases, enzymes or receptors” value [1] is listed as “no inhibition” and the activity against caspases [2] is listed as “activity against all tested human caspases (including caspase-2)”.

For Z-VDVAD-FMK, the “effect on palmitate-induced lipoapoptosis in adipocytes” value [3] was “prevented”.

For “VDVAD [available as a fluoromethylketone derivative]”, the “inhibition of caspase-2 activity” value (caspase-2) is listed as “irreversibly inhibits”.
